In patent US5137811A, “Method for diagnosing periodontal diseases with a substrate specific for aminopeptidase activity of periodontopathic bacteria” (Sunstar Kabushiki Kaisha, priority 1986, dated 1992):
Where a SMILES comes first, the peptide text is derived from it. The star is where a group is joined. βNA = c1ccc2cc(N*)ccc2c1; Bz = O=C(c1ccccc1)*

How the values were obtained:
Actinomyces israelli [1] = test: Hydrolytic activity of cell suspension, substrates alone or in combination (Experiment 3); assay type: cell-based; details: two strains, Table 3
Method: (§1) The strains of Treponema were anaerobically cultivated using TYGVS media at 37° C. for 7 days, while other bacterial strains were cultivated using brain heart infusion broth at 37° C. for 48 to 72 hours. Each culture was diluted to obtain a bacterial cell suspension, the absorption at 660 nm of which was 1.0.
(§2) Substrate compounds for aminopeptidase enzyme having various color developing groups derived from β-naphthylamine were dissolved in 0.1M Tris-HCl buffer (pH 7.0) at the concentration of 0.2 mM to obtain substrate solutions.
(§3) To the substrate solution (1.5 ml) was added the above cell suspension (0.3 ml) and reacted at 37° C. for 60 minutes. After completion of the reaction, a coloring reagent [prepared by dissolving diazonium salt of Garnet GBC in 1M acetate buffer (containing 10% Tween 20, pH: 4.2) at the concentration of 0.5 mg/ml] was added and, after 15 minutes, the absorption at 525 nm was determined with a spectrophotometer.
(§4) On the basis of the average amount of released β-naphthylamine in each strain, the hydrolytic activity was expressed as follows: […]
(§5) According to the same manner as described in Experiment 1, periodontopathic bacteria specific aminopeptidase activity was tested by using four strains of Treponema denticola, five strains of B. gingivalis, four strains of Actinobacillus actinomycetemcomitans, two strains of Actinomyces israelli and three strains of Fusobacterium nucleatum. Abbreviations in Table 3 are the same as those in Tables 1 and 2. Hydrolytic activity "+++" means "40≤release amount<80 nmol/ml" and "++++" means "release amount≥80 nmol/ml".

Fusobacterium nucleatum [2] = test: as above; assay type: cell-based; details: three strains, Table 3
Method: as §1, §2, §3, §4, §5

[3] = system: Actinobacillus actinomycetemcomitans; test: as above; assay type: cell-based; details: four strains, Table 3
Method: as §1, §2, §3, §4, §5

Treponema denticola [4] = test: as above; assay type: cell-based; details: four strains, Table 3
Method: as §1, §2, §3, §4, §5

B. gingivalis [5] = test: as above; assay type: cell-based; details: five strains, Table 3
Method: as §1, §2, §3, §4, §5

[6] = system: periodontopathic bacteria specific aminopeptidase activity; test: Hydrolytic activity of saliva supernatant, substrates alone or in combination (Experiment 9); assay type: biochemical; details: 37° C. for 4 hours, Table 9
Method: A saliva mixture was collected from a group consisting of ten healthy subjects and centrifuged to obtain a supernatant. Likewise, centrifuged supernatants were obtained from a group of ten subjects with adult periodontitis and a group of four localized juvenile periodontitis. The supernatant was used as a specimen and its hydrolytic activity was determined according to the same manner as described in Experiment 4 except that the reaction was carried out at 37° C. for 4 hours. As the substrates, there were used N-carbobenzoxy-valyl-glycyl-arginine-p-nitrophenol (CxVGR-pNP), N-carbobenzoxy-valyl-glycylarginine-4-methoxy-2-naphthylamide (CxVGR-4NA) and N-carbobenzoxy-valyl-glycyl-arginine-β-naphthylamide (CxVGR-βNA). Color was developed by using lN sodium hydroxide for CxVGR-pNP and Fast Blue BB for CxVGR-4NA and CxVGR-βNA.
According to the same manner as described in Experiment 7, hydrolytic activity was tested by using N-carbobenzoxy-valyl-glycyl-arginine-β-naphthylamide (CxVGR-βNA), N-benzoyl-arginyl-glycyl-phenylalanyl-proline-β-naphthylamide (BzRGFP-βNA), N-carbobenzoxy-valyl-glycylarginine-p-nitrophenol (CxVGR-pNP) and N-benzoyl-arginylglycyl-phenylalanyl-proline-p-nitrophenol (BzRGFP-pNP) alone or in combination as the substrates.

Actinomyces israelli [7] = test: Hydrolytic activity of cell suspension on aminopeptidase substrates (Experiment 2); assay type: cell-based; details: two strains, Table 2
Outline: (§6)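 Cell suspensions (A660 = 1.0; Treponema grown 7 days in TYGVS, others 48–72 h in BHI, 37 °C) were incubated with 0.2 mM β-naphthylamide substrates in 0.1 M Tris-HCl pH 7.0 for 60 min at 37 °C. Released β-naphthylamine detected with Garnet GBC at 525 nm and scored from strain averages.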

B. melaninogenicus = test: as above; assay type: cell-based; details: two strains, Table 2
Outline: as §6

Fusobacterium nucleatum [8] = test: as above; assay type: cell-based; details: three strains, Table 2
Outline: as §6

[9] = system: Actinobacillus actinomycetemcomitans; test: as above; assay type: cell-based; details: four strains, Table 2
Outline: as §6

B. intermedius = test: as above; assay type: cell-based; details: three strains, Table 2
Outline: as §6

Treponema denticola [10] = test: as above; assay type: cell-based; details: four strains, Table 2
Outline: as §6

B. gingivalis [11] = test: as above; assay type: cell-based; details: five strains, Table 2
Outline: as §6

B. corporis = test: as above; assay type: cell-based; details: Table 2
Outline: as §6

B. denticola = test: as above; assay type: cell-based; details: Table 2
Outline: as §6

[12] = system: periodontopathic bacteria specific aminopeptidase activity; test: Hydrolytic activity of gingival crevicular fluid specimens, OD525 (Experiment 6); assay type: biochemical
Method: as §2, §3
Specimens of gingival crevicular fluid were collected with paper points from five subjects who were considered to be healthy from their clinical state, six subjects with gingivitis and six subjects with periodontitis. Each specimen was dispersed in Ringer's solution (1.5 ml), and the relative amount of spirochete to total bacteria: [formula] was determined with a phase contrast microscope. Further, the Ringer's solution (0.3 ml) was tested for hydrolytic activity using the substrate solution prepared in the same manner as described in Experiment 1. As substrates, there were used compounds of the formula [1], i.e., N-benzoylvalyl-glycyl-arginine-β-naphthylamide (BzVGR) and N-carbobenzoxy-valyl-glycyl-arginine-β-naphthylamide (CxVGR) were used.
According to the same manner as described in Experiment 4, hydrolytic activity was tested by using the compounds of the formulas and [2], i.e., glycyl-proline-βnaphthylamide (GP), N-benzoyl-arginyl-glycyl-phenylalanylproline-β-naphthylamide (BzRGFP), N-carbobenzoxy-valylglycyl-arginine-β-naphthylamide (CxVGR) and N-benzoylglycyl-arginine-β-naphthylamide (BzGR) alone or in combination. Hydrolytic activity was determined by measuring absorption at 525 nm (OD525) and expressed as follows.

N=C(N)NCCC[C@H](NC(=O)c1ccccc1)C(=O)NCC(=O)N[C@@H](Cc1ccccc1)C(=O)N1CCC[C@H]1C(=O)Nc1ccc2ccccc2c1 [BzRGFP, N-benzoyl-arginyl-glycyl-phenylalanyl-proline-β-naphthylamide] (Bz-RGFP-βNA)
hydrolytic activity (release amount) (Actinomyces israelli [1]): - (release amount<5 nmol/ml) | hydrolytic activity (release amount) (Fusobacterium nucleatum [2]): - (release amount<5 nmol/ml) | hydrolytic activity (release amount) [3]: - (release amount<5 nmol/ml) | hydrolytic activity (release amount) (Treponema denticola [4]): ++ (20 ≤release amount<40 nmol/ml) | hydrolytic activity (release amount) (B. gingivalis [5]): ++ (20 ≤release amount<40 nmol/ml) | hydrolytic activity ([6]; Adult Periodontitis subjects): 27.8 ± 7.4 nmol/mL | hydrolytic activity ([6]; Healthy subjects): 13.2 ± 5.4 nmol/mL | hydrolytic activity ([6]; Localized juvenile periodontitis subjects): 22.6 ± 5.3 nmol/mL | hydrolytic activity (average amount of released β-naphthylamine) (Actinomyces israelli [7]): - (release amount<5 nmol/ml) | hydrolytic activity (average amount of released β-naphthylamine) (B. melaninogenicus): +++ (release amount≥40 nmol/ml) | hydrolytic activity (average amount of released β-naphthylamine) (Fusobacterium nucleatum [8]): - (release amount<5 nmol/ml) | hydrolytic activity (average amount of released β-naphthylamine) [9]: - (release amount<5 nmol/ml) | hydrolytic activity (average amount of released β-naphthylamine) (B. intermedius): +++ (release amount≥40 nmol/ml) | hydrolytic activity (average amount of released β-naphthylamine) (Treponema denticola [10]): ++ (20 ≤release amount<40 nmol/ml) | hydrolytic activity (average amount of released β-naphthylamine) (B. gingivalis [11]): ++ (20 ≤release amount<40 nmol/ml) | hydrolytic activity (average amount of released β-naphthylamine) (B. corporis): ++ (20 ≤release amount<40 nmol/ml) | hydrolytic activity (average amount of released β-naphthylamine) (B. denticola): +++ (release amount≥40 nmol/ml) | hydrolytic activity, absorption at 525 nm (OD525) ([12]; Gingivitis subject 1 (spirochete 7.3 %)): + (0.1≤OD525 <0.2) | hydrolytic activity, absorption at 525 nm (OD525) ([12]; Gingivitis subject 2 (spirochete 16.7 %)): + (0.1≤OD525 <0.2) | hydrolytic activity, absorption at 525 nm (OD525) ([12]; Gingivitis subject 3 (spirochete 20.5 %)): ++ (0.2≤OD525 <0.4) | hydrolytic activity, absorption at 525 nm (OD525) ([12]; Gingivitis subject 4 (spirochete 6.8 %)): - (OD525 <0.1) | hydrolytic activity, absorption at 525 nm (OD525) ([12]; Gingivitis subject 5 (spirochete 7.3 %)): - (OD525 <0.1) | hydrolytic activity, absorption at 525 nm (OD525) ([12]; Gingivitis subject 6 (spirochete 14.4 %)): + (0.1≤OD525 <0.2) | hydrolytic activity, absorption at 525 nm (OD525) ([12]; Healthy subject 1 (spirochete 0.1 %)): - (OD525 <0.1) | hydrolytic activity, absorption at 525 nm (OD525) ([12]; Healthy subject 2 (spirochete 2.5 %)): + (0.1≤OD525 <0.2) | hydrolytic activity, absorption at 525 nm (OD525) ([12]; Healthy subject 3 (spirochete 1.1 %)): - (OD525 <0.1) | hydrolytic activity, absorption at 525 nm (OD525) ([12]; Healthy subject 4 (spirochete 0.6 %)): - (OD525 <0.1) | hydrolytic activity, absorption at 525 nm (OD525) ([12]; Healthy subject 5 (spirochete 1.3 %)): - (OD525 <0.1) | hydrolytic activity, absorption at 525 nm (OD525) ([12]; Periodontitis subject 1 (spirochete 45.2 %)): +++ (0.4≤OD525 <0.8) | hydrolytic activity, absorption at 525 nm (OD525) ([12]; Periodontitis subject 2 (spirochete 30.3 %)): +++ (0.4≤OD525 <0.8) | hydrolytic activity, absorption at 525 nm (OD525) ([12]; Periodontitis subject 3 (spirochete 34.6 %)): +++ (0.4≤OD525 <0.8) | hydrolytic activity, absorption at 525 nm (OD525) ([12]; Periodontitis subject 4 (spirochete 21.2 %)): +++ (0.4≤OD525 <0.8) | hydrolytic activity, absorption at 525 nm (OD525) ([12]; Periodontitis subject 5 (spirochete 40.3 %)): +++ (0.4≤OD525 <0.8) | hydrolytic activity, absorption at 525 nm (OD525) ([12]; Periodontitis subject 6 (spirochete 35.1 %)): +++ (0.4≤OD525 <0.8)
